In patent publication EP2902035B1, “Cell-permeable peptide inhibitors of the JNK signal transduction pathway for use in the treatment of inflammatory eye diseases” (Xigen Inflammation Ltd., priority 2010, dated 2012):

How the values were obtained:
[1] = Ocular biodistribution by immunohistochemistry against SEQ ID NO: 11; format: in vivo, Lewis rats
Method: (§1) For immunohistochemistry, eyeballs were collected and fixed for 1h at room temperature in phosphate buffered saline (PBS) containing 4% paraformaldehyde before being rinsed overnight in PBS. The next day, samples were embedded and frozen in optimal cutting-temperature (OCT) compound (Tissue-Tek®, Sakura Finetek, Zoeterwoude, Netherland) and stored at -80°C. Frozen antero-posterior sections of eyes (10 µm thick) were performed at the optic nerve level using a cryostat (Leica CM 3050S, Rueil-Malmaison, France) and mounted on super-frost slides for immunohistochemical analysis.
(§2) A second set of experiment was designed to evaluate the anti-inflammatory effect of the JNK-inhibitor (poly-)peptide of SEQ ID NO: 11 at the cellular and tissue level as well as the biodistribution of this molecule 24 hours after administration. Rats were randomized into 11 experimental groups. 6 groups of rats with uveitis: untreated uveitic rats, rats injected intravenously with NaCl or the JNK-inhibitor (poly-)peptide of SEQ ID NO: 11 and rats injected intravitreously with the vehicle, the JNK-inhibitor (poly-)peptide of SEQ ID NO: 11 or dexamethasone. The 5 additional groups without uveitis were: untreated healthy rats, rats treated by NaCl IV or the JNK-inhibitor (poly-)peptide of SEQ ID NO: 11 IV and rats injected IVT with NaCl or the JNK-inhibitor (poly-)peptide of SEQ ID NO: 11. Three eyes from separate rats were collected per group and used for immunohistochemistry.
Immunostaining of the JNK-inhibitor (poly-)peptide of SEQ ID NO: 11 was performed on healthy and uveitic eyes to study its ocular biodistribution after systemic or local administration. Briefly, sections were permeabilized as described above before being sequentially incubated with an anti- SEQ ID NO: 11 purified rabbit IgG and a secondary Alexa 594 (red)-conjugated goat anti-rabbit IgG (Invitrogen, Cergy Pontoise, France) diluted 1:100 and 1:250 in PBS respectively. Immunostaining of untreated healthy and uveitic eyes were used as negative controls. Nuclei were stained with DAPI before mounting and observation.

[2] = test system: polymorphonuclear cells (PMN); assay: Quantification of infiltrating polymorphonuclear cells on histological sections in EIU; format: in vivo, Lewis rats; conditions: at 24 hours, mean ± SEM
Method: as §1, §2
To characterize the cellular infiltrate, sections were double-stained with ED1 and iNOS. […] After staining nuclei with DAPI (Sigma-Aldrich, Saint-Quentin Fallavier, France), sections were mounted in PBS/Glycerol (1/1) and observed by fluorescence photomicroscopy (FXA, Microphot, Nikon, Melville, USA). […] ED1 positive cells and polymorphonuclear cells, identified by the shape of their nuclei stained with DAPI, were quantified on histological sections. […] Results were expressed as mean ± standard error of the mean (SEM).

## CC(C)C[C@@H](NC(=O)[C@@H](Cc1ccccc1)NC(=O)[C@H]1CCCN1C(=O)[C@@H](CCC(N)=O)NC(=O)[C@H](NC(=O)[C@H]1CCCN1C(=O)[C@@H](CCCNC(=N)N)NC(=O)[C@@H](CO)NC(=O)[C@@H](CCC(N)=O)NC(=O)[C@H](N)CC(=O)O)C(C)C)C(=O)N[C@H](CC(N)=O)C(=O)N[C@H](CC(C)C)C(=O)N[C@@H](C(=O)N[C@@H](C(=O)N1CCC[C@@H]1C(=O)N[C@H](CCCNC(=N)N)C(=O)N[C@H](CCCCN)C(=O)N1CCC[C@@H]1C(=O)N[C@H](CCCNC(=N)N)C(=O)N1CCC[C@@H]1C(=O)N1CCC[C@@H]1C(=O)N[C@H](CCCNC(=N)N)C(=O)N[C@H](CCCNC(=N)N)C(=O)N[C@H](CCCNC(=N)N)C(=O)N[C@H](CCC(N)=O)C(=O)N[C@H](CCCNC(=N)N)C(=O)N[C@H](CCCNC(=N)N)C(=O)N[C@H](CCCCN)C(=O)N[C@H](CCCCN)C(=O)N[C@H](CCCNC(=N)N)C(=O)NCC(=O)O)[C@H](C)O)[C@H](C)O [SEQ ID NO: 11]
[1]; EIU eyes, 24 hours after IV injection
  detection of the peptide in ocular tissues: not detected
[1]; EIU eyes, 24 hours after IV injection, occasional cells
  detection of the peptide in infiltrating inflammatory cells (iris, aqueous humor): immunopositive
[1]; all cell types, normal eyes after IVT administration
  subcellular localisation of the peptide: accumulated within the cytoplasm
[1]; normal eyes, 24 hours after systemic (IV) injection, 20 µg/kg
  immunoreactivity of the peptide in ocular tissues: no signal was observed
[1]; normal rats, 24 hours after IVT administration, 0.2 µg/injection
  distribution of the peptide in ocular tissues: distributed in almost all ocular tissues
[1]; uveitic eyes, 24 hours after IVT injection
  distribution of the peptide in ocular tissues and resident cells: mostly found in ocular tissues like in healthy eyes and in resident cells
[2]; IV administration (20 µg/kg)
  number of polymorphonuclear cells (PMN): 60 ± 6
[2]; IVT injection (SEQ ID NO: 11: 0.2 µg/injection)
  number of polymorphonuclear cells (PMN): 40 ± 5
